Laboratory results from patent EP3064205A1, “Therapeutic use of isomeric forms of 2-(4-chlorophenyl)quinolin-4-yl)(piperidin-2-yl)methanol” (Glionova AB, priority 2015, dated 2016).
Read-outs that look alike come from different tables or passages of the source.

Key:
Assay in all cases: 3D clonogenic assay (PDX)
Format in all cases: cell-based, human
BXF 1036 = conditions: BXF 1036, Bladder; for IC50: Homo sapiens
In short: (§1)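 PDX tumors from NMRI nu/nu mice were enzymatically dissociated into cell suspensions and plated in soft agar. After 24 h, cells received continuous exposure to 10 concentrations (50 µM down to 0.0015 µM, in duplicate) for 8–13 days at 37 °C. Colonies >50 µm were stained with INT tetrazolium and counted by automated imaging; IC50 values came from 4-parameter fits.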

CXF 1783 = conditions: CXF 1783, Colorectal; for IC50: Homo sapiens
In short: as §1

CXF 647 = conditions: CXF 647, Colorectal; for IC50: Homo sapiens
In short: as §1

CXF 676 = conditions: CXF 676, Colorectal; for IC50: Homo sapiens
In short: as §1

HNXF 1853 = conditions: HNXF 1853, Head and Neck; for IC50: Homo sapiens
In short: as §1

LXFA 1041 = conditions: LXFA 1041, Lung Adeno; for IC50: Homo sapiens
In short: as §1

LXFL 430 = conditions: LXFL 430, Lung Large Cell; for IC50: Homo sapiens
In short: as §1

MEXF 672 = conditions: MEXF 672, Melanoma; for IC50: Homo sapiens
In short: as §1

PXF 537 = conditions: PXF 537, Pleuramesothelioma; for IC50: Homo sapiens
In short: as §1

RXF 1114 = conditions: RXF 1114, Renal; for IC50: Homo sapiens
In short: as §1

RXF 1781 = conditions: RXF 1781, Renal; for IC50: Homo sapiens
In short: as §1

RXF 616 = conditions: RXF 616, Renal; for IC50: Homo sapiens
In short: as §1

IC50 (BXF 1036; read-out: abs. IC50): 5.3 µM | IC50 (BXF 1036; read-out: rel. IC50): 5 µM | IC50 (CXF 1783; read-out: abs. IC50): 9.26 µM | IC50 (CXF 1783; read-out: rel. IC50): 8.81 µM | IC50 (CXF 647; read-out: abs. IC50): 24.2 µM | IC50 (CXF 647; read-out: rel. IC50): 16.5 µM | IC50 (CXF 676; read-out: abs. IC50): 8.92 µM | IC50 (CXF 676; read-out: rel. IC50): 8.78 µM | IC50 (HNXF 1853; read-out: abs. IC50): 50 µM | IC50 (HNXF 1853; read-out: rel. IC50): 8.77 µM | IC50 (LXFA 1041; read-out: abs. IC50): 5.3 µM | IC50 (LXFA 1041; read-out: rel. IC50): 5.25 µM | IC50 (LXFL 430; read-out: abs. IC50): 9.06 µM | IC50 (LXFL 430; read-out: rel. IC50): 8.98 µM | IC50 (MEXF 672; read-out: abs. IC50): 8.96 µM | IC50 (MEXF 672; read-out: rel. IC50): 8.56 µM | IC50 (PXF 537; read-out: abs. IC50): 8.67 µM | IC50 (PXF 537; read-out: rel. IC50): 8.63 µM | IC50 (RXF 1114; read-out: abs. IC50): 8.18 µM | IC50 (RXF 1114; read-out: rel. IC50): 7.98 µM | IC50 (RXF 1781; read-out: abs. IC50): 11.1 µM | IC50 (RXF 1781; read-out: rel. IC50): 11.1 µM | IC50 (RXF 616; read-out: abs. IC50): 8.81 µM | IC50 (RXF 616; read-out: rel. IC50): 8.77 µM
Structure (SMILES): O[C@H](c1cc(-c2ccc(Cl)cc2)nc2ccccc12)[C@@H]1CCCCN1 [S1, (R)-(2-(4-chlorophenyl)quinolin-4-yl)((S)-piperidin-2-yl)methanol]
b (bottom plateau of concentration-effect curve) (BXF 1036): 30 | t (top plateau of concentration-effect curve) (BXF 1036): 95 | b (bottom plateau of concentration-effect curve) (CXF 1783): 42 | t (top plateau of concentration-effect curve) (CXF 1783): 100 | b (bottom plateau of concentration-effect curve) (CXF 647): 20 | t (top plateau of concentration-effect curve) (CXF 647): 97 | b (bottom plateau of concentration-effect curve) (CXF 676): 19 | t (top plateau of concentration-effect curve) (CXF 676): 105 | b (bottom plateau of concentration-effect curve) (HNXF 1853): 50 | t (top plateau of concentration-effect curve) (HNXF 1853): 106 | b (bottom plateau of concentration-effect curve) (LXFA 1041): 10 | t (top plateau of concentration-effect curve) (LXFA 1041): 95 | b (bottom plateau of concentration-effect curve) (LXFL 430): 14 | t (top plateau of concentration-effect curve) (LXFL 430): 99 | b (bottom plateau of concentration-effect curve) (MEXF 672): 39 | t (top plateau of concentration-effect curve) (MEXF 672): 96 | b (bottom plateau of concentration-effect curve) (PXF 537): 24 | t (top plateau of concentration-effect curve) (PXF 537): 80 | b (bottom plateau of concentration-effect curve) (RXF 1114): 30 | t (top plateau of concentration-effect curve) (RXF 1114): 94 | b (bottom plateau of concentration-effect curve) (RXF 1781): 8 | t (top plateau of concentration-effect curve) (RXF 1781): 112 | b (bottom plateau of concentration-effect curve) (RXF 616): 17 | t (top plateau of concentration-effect curve) (RXF 616): 89
